Experimental data as given in ChEMBL document CHEMBL1287705, “Design and synthesis of threading intercalators to target DNA” (Bioorg Med Chem Lett, 2010).

Assays:
HL-60 [1] = experiment: Cytotoxicity against human HL60 cells by MTS assay; assay type: functional, cell-based
Calf thymus DNA = experiment: Displacement of ethidium bromide from calf thymus DNA by fluorometric assay; assay type: nucleic-acid assay; conditions: Bos taurus
HL-60 [2] = experiment: Growth inhibition of human HL60 cells; assay type: functional

SMILES | IC50 (HL-60 [1]) [µM] | other results
CN(C)CCNC(=O)c1ccc2c(NCCCCCCNC(=O)c3ccc4ccccc4n3)c3ccccc3nc2c1 | 30.7 | 
CN(C)CCNC(=O)c1ccc2c(NCCCCCCN)c3ccccc3nc2c1 | 38.3 | Kapp (Calf thymus DNA): 9.83 ×10⁶ /M
CN(C)CCNC(=O)c1cccc2c(NCCCCCCN)c3ccccc3nc12 | 0.45 | Kapp (Calf thymus DNA): 3.1 ×10⁷ /M
CN(C)CCNC(=O)c1ccc2c(NCCCCCCNS(=O)(=O)c3cccc4cccnc34)c3ccccc3nc2c1 | 35.8 | 
CN(C)CCNC(=O)c1cccc2c(NCCCCCCNC(=O)c3ccc4ccccc4n3)c3ccccc3nc12 | 22.6 | 
CN(C)CCNC(=O)c1cccc2c(NCCCCCCNS(=O)(=O)c3cccc4c(N(C)C)cccc34)c3ccccc3nc12 | 2.1 | 
CN(C)CCNC(=O)c1cccc2c(NCCCCCCNC(=O)c3cccc4ccccc34)c3ccccc3nc12 | 3.5 | 
CN(C)CCNC(=O)c1cccc2c(NCCCCCCNS(=O)(=O)c3cccc4cccnc34)c3ccccc3nc12 | 16 | 
CN(C)CCNC(=O)c1ccc2c(NCCCCCCNS(=O)(=O)c3cccc4c(N(C)C)cccc34)c3ccccc3nc2c1 | 26.7 | 
CN(C)CCNC(=O)c1ccc2c(NCCCCCCNC(=O)c3cccc4ccccc34)c3ccccc3nc2c1 | 58.9 | 
Nc1c2ccccc2nc2ccccc12 [AMINACRINE] |  | Kapp (Calf thymus DNA): 1.8 ×10⁶ /M; logKA (Calf thymus DNA): 6.26; GI50 (HL-60 [2]): 2 µM
